Structures are written as SMILES. Where only a bound is given, the exact number is not on record here.

For assay [1], the target named is Methionine aminopeptidase 2 (Plasmodium falciparum, UniProt Q8TA23). The assay can be described thus: Enzyme Inhibiton Assay. The text has this: (§1) Enzyme affinity assay using Fumarranol analogs with plasmodium falciparum methionine aminopeptidases (PfMetAPs).
The target in assay [2] is T1, Methionine aminopeptidase (Plasmodium falciparum Santa Lucia, UniProt W7G645).
T1 sequence (W7G645 whole entry): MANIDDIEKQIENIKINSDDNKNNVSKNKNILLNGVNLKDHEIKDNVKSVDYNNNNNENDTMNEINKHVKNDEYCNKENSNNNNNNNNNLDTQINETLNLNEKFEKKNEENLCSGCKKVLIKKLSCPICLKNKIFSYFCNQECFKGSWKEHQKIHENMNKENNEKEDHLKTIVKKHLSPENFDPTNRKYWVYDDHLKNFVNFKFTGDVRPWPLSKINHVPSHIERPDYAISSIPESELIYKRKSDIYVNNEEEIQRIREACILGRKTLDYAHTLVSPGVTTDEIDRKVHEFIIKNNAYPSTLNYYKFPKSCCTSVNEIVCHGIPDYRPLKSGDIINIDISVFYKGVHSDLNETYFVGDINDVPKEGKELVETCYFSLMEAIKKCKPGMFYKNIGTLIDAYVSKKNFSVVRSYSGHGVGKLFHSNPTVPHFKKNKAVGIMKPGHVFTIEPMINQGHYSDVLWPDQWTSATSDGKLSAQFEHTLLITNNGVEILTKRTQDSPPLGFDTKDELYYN
The assay can be described thus: Enzyme Inhibiton Assay.
Excerpt: as §1

Methionine aminopeptidase 2, sequence (Q8TA23 whole entry): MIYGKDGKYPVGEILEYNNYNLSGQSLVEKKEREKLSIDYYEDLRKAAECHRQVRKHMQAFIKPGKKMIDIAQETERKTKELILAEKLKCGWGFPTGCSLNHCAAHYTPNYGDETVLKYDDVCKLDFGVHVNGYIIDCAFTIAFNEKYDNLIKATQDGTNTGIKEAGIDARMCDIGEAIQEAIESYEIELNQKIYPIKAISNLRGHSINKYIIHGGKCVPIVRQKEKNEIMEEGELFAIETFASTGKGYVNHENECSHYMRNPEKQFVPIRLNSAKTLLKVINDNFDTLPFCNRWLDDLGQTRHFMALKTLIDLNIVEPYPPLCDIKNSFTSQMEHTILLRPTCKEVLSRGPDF

By IC50 is commonly meant the concentration that gives 50% inhibition. Higher therefore signals weaker potency in that assay. In assay [1], `CO[C@]12C(=O)CC[C@@]1(CO)C2/C(C)=C/CC=C(C)C` (some centres not stated) [Fumarranol Analog, 8] came in with an IC50 of over 500 µM. `CO[C@@]12C([C@@]3(C)O[C@@H]3CC=C(C)C)[C@]1(CO)CC[C@H]2O` (some centres not stated) [Fumarranol Analog, 10] yielded an IC50 in assay [1] of over 500 µM. As for `CO[C@]12C(=O)/C(=C/c3ccco3)C[C@@]1(CO)C2[C@@]1(C)O[C@@H]1CC=C(C)C` (some centres not stated) [Fumarranol Analog, 9], the half-maximal inhibitory concentration (IC50) in assay [1] is over 500 µM. `CO[C@]12C(=O)CC[C@@]1(CBr)C2[C@@]1(C)O[C@@H]1CC=C(C)C` (some centres not stated) [Fumarranol Analog, 6] registered an IC50 in assay [1] of over 500 µM. As to `CO[C@@H]1[C@H](OC(=O)NC(=O)CCl)CC[C@]2(CO2)[C@H]1[C@@]1(C)O[C@@H]1CC=C(C)C` [(3R,4S,5S,6R)-5-methoxy-4-[(2R,3R)-2-methyl-3-(3-methylbut-2-en-1-yl)oxiran-2-yl]-1-oxaspiro[2.5]octan-6-yl N-(2-chloroacetyl)carbamate], the IC50 is over 300 µM in assay [2] and 2 µM in assay [1]. As to `CO[C@]12C(=O)CC[C@@]1(C=O)C2[C@@]1(C)O[C@@H]1CC=C(C)C` (some centres not stated) [Fumarranol Analog, 7], the IC50 in assay [1] is over 500 µM.

For the origin of these results see BindingDB's records for doi:10.1016/j.chembiol.2009.01.006 (Johns Hopkins School of Medicine, 2009).
